Data as given in article PMC12410356 (International Journal for Parasitology: Drugs and Drug …, 2025).

Tests used:
[1] = system: E. multilocularis metacestode vesicles; assay: Phosphoglucose isomerase (PGI) release assay (damage-marker release) on metacestode vesicles; assay type: cell-based, Echinococcus multilocularis; conditions: 10 μM; for PGI d5 (relative PGI release): 5 days; for PGI d12 (relative PGI release): 12 days
[2] = system: E. multilocularis metacestode vesicles; assay: Metacestode vesicle viability assay (ATP, CellTiter-Glo); assay type: cell-based, Echinococcus multilocularis
Method: Viability was assessed after 12 days using the same metacestode vesicles as for the PGI release assay. Triton X-100 was added to each well to a final concentration of 0.1 %. Subsequently the metacestode vesicles were broken mechanically and 50 μL of the supernatant was mixed with 50 μL of CellTiter-Glo® buffer (Promega, Dübendorf, Switzerland). Measurements were performed on a HIDEX Sense microplate reader.

[3] = overview screen, singlets, relative to 0.1 % Triton X-100, DMSO subtracted
[4] = overview screen, 10 μM, singlets, 12 days, relative to DMSO control
[5] = confirmation screen, triplicates, mean
[6] = confirmation screen, 10 μM, triplicates, mean, 12 days

Compound	PGI d5 (relative PGI release) [1, 3] [%]	PGI d12 (relative PGI release) [1, 3] [%]	Viability d12 (relative viability) [2, 4] [%]	PGI d5 (relative PGI release) [1, 5] [%]	PGI d12 (relative PGI release) [1, 5] [%]	Viability d12 (relative viability) [2, 6] [%]	Viability d12 (relative viability) ([2]; 10 µM) [%]
c1cnc(NCc2ccc(CNc3ncccn3)cc2)nc1 [MMV1580490]	0.6457	0.4288	45.3723				
CCC(C)NCC(O)Cn1c2ccc(Cl)cc2c2cc(Cl)ccc21 (stereo not drawn) [MMV1578570]	90.467	70.4859	22.9025	-0.08	0.27	94.06	
CCc1ccccc1OCCN1CCCCCC1 [MMV1633962]	1.217	-18.8642	159.976				
COc1ccc2sc3c(c2c1)NC(C)CNC3=O (stereo not drawn) [MMV1782115]	-1.121	1.77	114.23				
O=C(CCc1ccc2c(c1)OCO2)NCc1ccc(-c2ccccc2F)cc1 [MMV1782110]	-0.8152	-13.3688	100.363				
C=C(C)n1c(=O)n(Cc2ccccc2C)c2ccccc21 [MMV1579354]	29.5855	93.1874	10.0196	-0.0635	0.33	130.19	
O=C(Nc1ccc(N2CCN(C(=O)c3ccccc3)CC2)cc1)c1ccc2c(c1)OCO2 [MMV1580505]	-0.142	-0.2928	160.891				
Nc1nc(-c2ccccc2)nc2[nH]nc(Nc3ccc(C(F)(F)F)cc3)c12 [MMV1633968]	0.2239	0.02121	133.404				
CCOC(=O)Nc1cc(NC(C)CC(C)CN(CC)CC)c2nc(-c3ccccc3)c(-c3ccccc3)nc2n1 (stereo not drawn) [MMV1633967]	-2.798	-20.9085	104.121				
CC(=O)O[C@H]1C[C@@]2(C)[C@@H](C[C@@H](O)[C@H]3[C@@]4(C)CC[C@@H](O)[C@@H](C)[C@@H]4CC[C@@]32C)/C1=C(\CCC=C(C)C)C(=O)O [MMV1578575]	2.315	-12.4921					144.199
O=C1CCC(N2C(=O)c3ccccc3C2=O)C(=O)N1 (stereo not drawn) [MMV002612]	-1.046	-2.884					99.2866
O=C1C=C(c2ccccc2)S(=O)(=O)c2ccccc21 [MMV1006203]	0.2239	0.7153	120.957				
Cc1cc(C)n(O)c(=O)c1 [MMV1782389]	-2.677	-25.4049	156.473				
COc1ccc(OCc2ccc(COc3c(Cl)cccc3Cl)cc2)c(Cl)c1 [MMV1580485]	-0.2661	-0.7114	122.098				
CC(=N)N1CC[C@H](SC2=C(C(=O)O)N3C(=O)[C@@H]([C@@H](C)O)[C@H]3C2)C1 [MMV1582382]	-2.073	-11.6677	19.8723				
Cc1cccc(CC(=O)N[C@H]2CCOC2=O)c1 [MMV1579782]	1.649	1.447	167.646				
O=C(O)c1ccc(-c2ccc(O[C@H]3O[C@H](CO)[C@@H](O)[C@H](O)[C@@H]3O)cc2)cc1 [MMV1633970]	0.1129	-1.296	109.047				
Cc1onc(-c2ccccc2)c1-c1ccc(S(N)(=O)=O)cc1 [MMV002260]	0.1005	-4.614	84.2251				
CN1C(=O)C(c2ccccc2)C(=O)N(c2ccccc2)c2cc(C(F)(F)F)ccc21 (stereo not drawn) [MMV1782208]	0.993	-0.2102	97.8548				
CC1CN(c2ncnc3c2c(-c2ccccc2)cn3-c2ccc(F)cc2)CC(C)O1 (stereo not drawn) [MMV093250]	0.6968	49.8105	6.513	0.08	-0.45	29.29	
O=C(c1ccccc1)N1CCN(c2ccccc2NC(=O)C(Cl)(Cl)Cl)CC1 [MMV001014]	0.3132	-4.23	104.308				
NNC(=O)c1ccncc1 [MMV002169]	1.814	-1	113.159				
